From patent US20150282488A1, “COMPOSITIONS AND METHODS FOR CONTROLLING PLANT-PARASITE NEMATODE” (BAYER CROPSCIENCE LP, priority 2012, published 2015) come the findings set out here.

This experiment concerns R. reniformis. Description: Greenhouse trial with treated cotton seeds in autoclaved soil. Type of experiment: in vivo, Rotlyenchulus reniformis. The conditions noted are these: seed treatment 500 g ai/100 kg. The text has this: Anti-nematodal activity is understood as meaning any activity useful in controlling or killing nematodes, such as reducing nematode egg hatching or paralyzing juveniles of nematodes. Testing for anti-nematodal activity is done both in-vitro and in-vivo through laboratory and greenhouse procedures. In-vitro testing can involve testing eggs and/or juvenile nematodes in selective media in small 96-well plates and measurements done by microscopic evaluations. Proper control treatments would be combined to monitor and compare activity. Under greenhouse studoes soil was autoclaved using two 90 minute cycles at 130° C. at […] pressure with a 24 hour cool down between cycles to remove any natural competition for the microflora. The vermiform stages were extracted from the soil by the modified gravity screening and sucrose centrifugation-flotation. Eggs stages were extracted from cotton roots by shaking the root system in a 1% NaOCl solution for four minutes at 120 rpm. The nematode suspension was collected and rinsed with water through a 25 μm sieve. Females in roots were stained with acid fuschin to facilitate enumeration of the females invading the root. Variables measured included plant height, shoot and root weights, females and eggs per gram of root, and the number of vermiform life stages in soil. […]
Rotlyenchulus reniformis vermiform life stages were extracted from the soil by modified gravity screening and sucrose centrifugation-flotation. […] Vermiform life stages and eggs were counted under an inverted TS 100 Nikon microscope at 40× magnification. Females embedded in the root systems were quantified at 5× magnification utilizing the Nikon SMZ800 […] microscope. Variables measured were plant height, shoot and root weight, females and eggs per gram of root, and the number of vermiform life stages in 500 cm^3 of soil. […] Data were analyzed in SAS 9.1 (SAS Institute Inc.). The distributional assumption was evaluated with the student panel graphs of the GLIMMIX procedure. […]

Regarding `O=[N+]([O-])NC1=NCCN1Cc1ccc(Cl)nc1` [imidacloprid], the “effect on R. reniformis life stages” value was “did not have any effect”, the “effect on cotton plant growth” value was “did not have any effect” and the nematicidal activity entry is recorded as “did not show any nematicidal activity”.
